Data as given in PubChem BioAssay AID1963448 (Molecular Pharmacology Branch, DTP, NCI, 2024).
Values belong to the compound of their own block, whether it stands above or below them.

System: 616215-338-R-J1-PDC complex spheroid growth, % test/control
Assay: Anticancer human tumor 616215-338-R-J1-PDC patient-derived colon adenocarcinoma cell line growth inhibition [Asc]
Details: for IC50: curve of first compound; for viability, T/C: stronger effect = lower value
Outline: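 Concentration series start at each agent's clinical Cmax, or at 10 microM when none is established, and drop in half-log steps; agents are applied alone or together to complex spheroids built with HUVEC and hMSC.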
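Note: spheroids exposed to agents for seven days before readout.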
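Throughout, for viability, T/C: 100% = DMSO vehicle control viability.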

IC50 (second compound 0.00316 µM): 969 nM
IC50 (second compound 0.01 µM): 534 nM
IC50 (second compound 0.0316 µM): 1080 nM
IC50 (second compound 0.1 µM): 784 nM
IC50 (second compound 0.316 µM): 530 nM
IC50 (second compound 1 µM): 1770 nM
SMILES: Cc1nc(N2CCC3(CC2)COC(C)C3N)c(CO)nc1Sc1ccnc(N)c1Cl (configuration not stated) + CNC(C)C(=O)NC1CN(S(=O)(=O)c2cccc(S(=O)(=O)N3CCC4CCC(C(=O)NC(c5ccccc5)c5ccccc5)N4C(=O)C(NC(=O)C(C)NC)C3)c2)CCC2CCC(C(=O)NC(c3ccccc3)c3ccccc3)N2C1=O
viability, T/C (second compound 0.00316 µM, first compound 0.00949 µM): 96.8%
viability, T/C (second compound 0.00316 µM, first compound 0.03 µM): 104%
viability, T/C (second compound 0.00316 µM, first compound 0.0949 µM): 89.7%
viability, T/C (second compound 0.00316 µM, first compound 0.3 µM): 99.3%
viability, T/C (second compound 0.00316 µM, first compound 0.949 µM): 50.8%
viability, T/C (second compound 0.00316 µM, first compound 3 µM): 8.66%
viability, T/C (second compound 0.01 µM, first compound 0.00949 µM): 87.2%
viability, T/C (second compound 0.01 µM, first compound 0.03 µM): 94.1%
viability, T/C (second compound 0.01 µM, first compound 0.0949 µM): 99.7%
viability, T/C (second compound 0.01 µM, first compound 0.3 µM): 85.3%
viability, T/C (second compound 0.01 µM, first compound 0.949 µM): 14.7%
viability, T/C (second compound 0.01 µM, first compound 3 µM): 7.72%
viability, T/C (second compound 0.0316 µM, first compound 0.00949 µM): 99.4%
viability, T/C (second compound 0.0316 µM, first compound 0.03 µM): 68.4%
viability, T/C (second compound 0.0316 µM, first compound 0.0949 µM): 104%
viability, T/C (second compound 0.0316 µM, first compound 0.3 µM): 98.4%
viability, T/C (second compound 0.0316 µM, first compound 0.949 µM): 54.9%
viability, T/C (second compound 0.0316 µM, first compound 3 µM): 11.4%
viability, T/C (second compound 0.1 µM, first compound 0.00949 µM): 103%
viability, T/C (second compound 0.1 µM, first compound 0.03 µM): 85.1%
viability, T/C (second compound 0.1 µM, first compound 0.0949 µM): 94%
viability, T/C (second compound 0.1 µM, first compound 0.3 µM): 115%
viability, T/C (second compound 0.1 µM, first compound 0.949 µM): 40.3%
viability, T/C (second compound 0.1 µM, first compound 3 µM): 9.21%
viability, T/C (second compound 0.316 µM, first compound 0.00949 µM): 92.2%
viability, T/C (second compound 0.316 µM, first compound 0.03 µM): 78.3%
viability, T/C (second compound 0.316 µM, first compound 0.0949 µM): 98.2%
viability, T/C (second compound 0.316 µM, first compound 0.3 µM): 68.3%
viability, T/C (second compound 0.316 µM, first compound 0.949 µM): 29.9%
viability, T/C (second compound 0.316 µM, first compound 3 µM): 11.6%
viability, T/C (second compound 1 µM, first compound 0.00949 µM): 83.1%
viability, T/C (second compound 1 µM, first compound 0.03 µM): 88.3%
viability, T/C (second compound 1 µM, first compound 0.0949 µM): 103%
viability, T/C (second compound 1 µM, first compound 0.3 µM): 92.5%
viability, T/C (second compound 1 µM, first compound 0.949 µM): 101%
viability, T/C (second compound 1 µM, first compound 3 µM): 12.8%

IC50 (second compound 0.1 µM): > 10000 nM
IC50 (second compound 0.316 µM): 6750 nM
IC50 (second compound 1 µM): 755 nM
IC50 (second compound 3.16 µM): < 31.6 nM
IC50 (second compound 10 µM): < 31.6 nM
SMILES: O=C(c1cc(Cc2n[nH]c(=O)c3ccccc23)ccc1F)N1CCN(C(=O)C2CC2)CC1 + Cc1c(S(C)(=O)=O)c(-c2cc(F)cc(N3CCN(c4ccc(NS(=O)(=O)c5ccc(NC(CCN6CCC(C(=O)OCCCP(=O)(O)O)CC6)CSc6ccccc6)c(S(=O)(=O)C(F)(F)F)c5)cc4)CC3)c2)c(-c2ccc(Cl)cc2)n1C(C)C
viability, T/C (second compound 0.1 µM, first compound 0.0316 µM): 95.5%
viability, T/C (second compound 0.1 µM, first compound 0.1 µM): 96%
viability, T/C (second compound 0.1 µM, first compound 0.316 µM): 92.5%
viability, T/C (second compound 0.1 µM, first compound 1 µM): 92%
viability, T/C (second compound 0.1 µM, first compound 3.16 µM): 89.1%
viability, T/C (second compound 0.1 µM, first compound 10 µM): 78.8%
viability, T/C (second compound 0.316 µM, first compound 0.0316 µM): 88.8%
viability, T/C (second compound 0.316 µM, first compound 0.1 µM): 90%
viability, T/C (second compound 0.316 µM, first compound 0.316 µM): 85.4%
viability, T/C (second compound 0.316 µM, first compound 1 µM): 86.5%
viability, T/C (second compound 0.316 µM, first compound 3.16 µM): 66.6%
viability, T/C (second compound 0.316 µM, first compound 10 µM): 41.4%
viability, T/C (second compound 1 µM, first compound 0.0316 µM): 72.7%
viability, T/C (second compound 1 µM, first compound 0.1 µM): 67.6%
viability, T/C (second compound 1 µM, first compound 0.316 µM): 59%
viability, T/C (second compound 1 µM, first compound 1 µM): 49%
viability, T/C (second compound 1 µM, first compound 3.16 µM): 26.3%
viability, T/C (second compound 1 µM, first compound 10 µM): 10.9%
viability, T/C (second compound 3.16 µM, first compound 0.0316 µM): 34%
viability, T/C (second compound 3.16 µM, first compound 0.1 µM): 30.4%
viability, T/C (second compound 3.16 µM, first compound 0.316 µM): 25.3%
viability, T/C (second compound 3.16 µM, first compound 1 µM): 17.2%
viability, T/C (second compound 3.16 µM, first compound 3.16 µM): 3.59%
viability, T/C (second compound 3.16 µM, first compound 10 µM): 2.49%
viability, T/C (second compound 10 µM, first compound 0.0316 µM): 20.7%
viability, T/C (second compound 10 µM, first compound 0.1 µM): 18.4%
viability, T/C (second compound 10 µM, first compound 0.316 µM): 11.2%
viability, T/C (second compound 10 µM, first compound 1 µM): 3.83%
viability, T/C (second compound 10 µM, first compound 3.16 µM): 1.31%
viability, T/C (second compound 10 µM, first compound 10 µM): 1.84%
